Assay results as given in patent publication US7067520B2, “Preventive or therapeutic medicines for diabetes containing fused-heterocyclic compounds or their salts” (Ishihara Sangyo Kaisha, Ltd., priority 2000, dated 2006).

Key:
L6 cells = assay: Glucose uptake test by L6 cells; format: cell-based; conditions: Rattus norvegicus, 1 hour, 2-deoxy-[3H]-glucose uptake, control (MEM solvent alone) = 100%, read-out: Ratio activity (%); for activity at 10 µg/mL: treatment concentration 10 μg/ml; for activity at 100 µg/mL: treatment concentration 100 μg/ml
Description: Glucose Uptake Test by L6 Cells
Each of compounds under test was applied to L6 cells (rat cells originally derived from skeletal muscles) by the following method to measure the stimulating effect on glucose uptake. Namely, L6 cells were suspended in α-minimum essential medium (hereinafter referred to simply as MEM) containing 10% fetal bovine serum (hereinafter referred to simply as FBS), and inoculated into a 96-well plastic plate in an amount of 5×10^4 cells/well and cultivated in an incubator (5% carbon dioxide gas, 37° C.) until the cells grew all over the well. Then, the culture medium was switched to MEM solution containing 2% BS, followed by cultivation further for from 7 to 10 ays (the culture medium was exchanged every three days) to differentiate the cells into skeletal muscle cells. Then, the culture medium was replaced with MEM solution without FBS, followed by cultivation for three hours, and then the compound under test prepared to a treatment concentration (diluted with MEM solution without FBS) was reacted with the skeletal muscle cells at 37° C. for 1 hour. The cells were washed with Krebs-Henseleit-Ringer buffer solution (hereinafter referred to simply as KHR buffer solution), and 2-deoxy-[^3H]-glucose was added to the cells in the KHR buffer solution, followed by treatment at 37° C. for 10 minutes. The treatment solution was removed, the cells were washed with the KHR buffer solution, then the cells were dissolved in a 1N sodium hydroxide solution in an appropriate amount, and the [^3H] radio activity was measured by means of a liquid scintillation counter (cpm) The percentage of the glucose uptake was represented by the percentage of radio activity when the compound under test was applied, taking the radio activity of the control (the MEM solvent alone was applied) as 100%. Each of the compounds as identified in Table 27 was used for treatment at a concentration of each of 10 μg/ml and 100 μg/ml to examine the stimulating effect on glucose uptake.

| Structure (SMILES) | melting point | activity at 10 µg/mL (L6 cells) [%] | activity at 100 µg/mL (L6 cells) [%] |
| --- | --- | --- | --- |
| CSc1nc2ccnn2c(NCc2ccccc2)c1C#N [Compound No. 2, 7-benzylamino-5-methylthiopyrazolo[1,5-a]pyrimidine-6-carbonitrile] | 165 °C | > 115 | > 115 |
| CSc1nc2ccnn2c(NCc2ccccn2)c1C#N [Compound No. 5] | 190 °C |  | > 115 |
| CSc1nc2ccnn2c(NCc2cccnc2)c1C#N [compound 4] | 192 °C |  | > 115 |
| CCOCNc1c(C#N)c(SC)nc2ccnn12 [compound 9] | 132 to 133 °C | > 115 | > 115 |
| CSc1nc2ccnn2c(NCC2CCCCO2)c1C#N (centres unmarked) [compound 11] | 121 to 122 °C | > 115 |  |
| CNc1c(C#N)c(SC)nc2ccnn12 [compound 14] | 216 °C |  | > 115 |
| CCNc1c(C#N)c(SC)nc2ccnn12 [compound 15] | 133 °C |  | > 115 |
| CSc1nc2ccnn2c(N(C)C)c1C#N [compound 17] | 144 °C |  | > 115 |
| C#CCNc1c(C#N)c(C)nc2ccnn12 [compound 22] | 169 °C | > 115 | > 115 |
| Cc1nc2ccnn2c(N)c1C#N [compound 25] |  |  | > 115 |
| Cc1nc2ccnn2c(NCCc2ccccc2)c1C#N [compound 27] | 143 °C |  | > 115 |
| N#Cc1cnc2ccnn2c1NCc1ccccc1 [compound 28] | 125 °C |  | > 115 |
| Cc1nc2ccnn2c(NCc2ccncc2)c1C#N [compound 29] | 165 °C |  | > 115 |
| CSc1nc(NCc2ccncc2)n2nccc2n1 [compound 40] | 136 °C | > 115 | > 115 |
| CSc1nc2nccn2c(NCc2ccncc2)c1C#N [compound 43] | 204 °C | > 115 | > 115 |
| CSc1nc2cc(-c3ccccc3)nn2c(NCc2ccccc2)c1C#N [compound 46] | 172 °C |  | > 115 |
| CSc1nc2nc3ccccc3n2c(NCc2ccccc2)c1C#N [compound 47] | 233 °C |  | > 115 |
| COC(=O)c1c(SC)nc2ccnn2c1Nc1ccccc1 [compound 122] |  | > 115 | > 115 |
| CSc1nc2ccnn2c(NC2CCCC2)c1[N+](=O)[O-] [compound 127] | 132 to 134 °C |  |  |
| CSc1nc2ccnn2c(NCc2ccccc2)c1C(=O)O [compound 128] | 162.7 to 164 °C |  |  |
| CSc1nc2ccnn2c(NCc2ccncc2)c1C(=O)O [compound 129] | 155 to 157 °C |  |  |
| CSc1nc2ccnn2c(NOCc2ccccc2)c1C(=O)O [compound 132] |  |  | > 115 |
| CSc1nc2ccnn2c(Nc2cccc(C#N)c2)c1C(=O)O [compound 134] | 162.5 to 164.5 °C |  |  |
| CSc1nc2ccnn2c(Cl)c1C(=O)OCc1ccccc1 [compound 146] | 52 to 54 °C |  |  |

| Structure (SMILES) | melting point | activity at 10 µg/mL (L6 cells) [%] | activity at 100 µg/mL (L6 cells) [%] |
| --- | --- | --- | --- |
| CSc1nc2ccnn2c(NCc2ccncc2)c1C(=O)OCc1ccccc1 [compound 147] | 122 to 123 °C |  |  |
| CSc1nc2ccnn2c(Nc2cccc(C#N)c2)c1C(=O)OCc1ccccc1 [compound 148] | 141 to 142 °C |  |  |
| CSc1nc2ccnn2c(Nc2ccc(S(N)(=O)=O)cc2)c1C#N [compound 149] | 285 to 288 °C (dec.) |  |  |
| CSc1nc2ccnn2c(Nc2ccc(S(=O)(=O)N(C)C)cc2)c1C#N [compound 150] | 303 to 306 °C (dec.) |  |  |
| CSc1nc2ccnn2c(Nc2cccc(S(=O)(=O)N(C)C)c2)c1C#N [compound 151] | 205 to 208 °C |  |  |
| CSc1nc2ccnn2c(Nc2cccc(S(N)(=O)=O)c2)c1C#N [compound 152] | > 280 °C |  |  |
| COc1nc2ccnn2c(NCc2ccncc2)c1C#N [compound 153] | 193 to 195 °C |  |  |
| COC(=O)c1c(SC)nc2ccnn2c1O [compound 155] | 192 to 194 °C |  |  |
| CSc1nc2ccnn2c(N2CCC(C)CC2)c1C#N [compound 160] | 118 to 120 °C |  |  |
| CSc1nc2ccnn2c(Nc2cccc(Cl)c2)c1C#N [compound 162] | 161 to 162 °C |  |  |
| CSc1nc2ccnn2c(Nc2ccc3c(c2)CCC3)c1C#N [compound 165] | 146 to 148 °C |  |  |
| CSc1nc2ccnn2c(Nc2ccc3ncsc3c2)c1C#N [compound 166] | 140 to 141 °C |  |  |
| CSc1nc2ccnn2c(Nc2ccc(OC(F)(F)F)cc2)c1C#N [compound 167] | 243 to 244 °C |  |  |
| COc1ccc(Nc2c(C#N)c(SC)nc3ccnn23)cc1 [compound 169] | 214 to 215 °C |  |  |
| CSc1nc2ccnn2c(Nc2ccc(O)cc2)c1C#N [compound 170] | 250 to 256 °C |  |  |
| COC(=O)c1ccc(Nc2c(C#N)c(SC)nc3ccnn23)cc1 [compound 171] | 205 to 206 °C |  |  |
| CCOC(=O)c1ccc(Nc2c(C#N)c(SC)nc3ccnn23)cc1 [compound 175] | 191 to 192 °C |  |  |
| CSc1nc2ccnn2c(Nc2ccc(C(=O)O)cc2)c1C#N [compound 176] | > 250 °C |  |  |
| CSc1nc2ccnn2c(NOc2ccccc2)c1C#N [compound 179] | > 250 °C |  |  |
| CSc1nc2ccnn2c(NCc2cccs2)c1C#N [compound 180] | 142 °C |  |  |
| CSc1nc2ccnn2c(NCCOc2ccccc2)c1C#N [compound 181] | 122 °C |  |  |
| CSc1nc2ccnn2c(OCCOc2ccccc2)c1C#N [compound 182] | 125 °C |  |  |
| CSc1nc2ccnn2c(SCc2ccccc2)c1C#N [compound 183] | 138 °C |  |  |

More lines, main results first:

| melting point | Structure (SMILES) | activity at 10 µg/mL (L6 cells) [%] | activity at 100 µg/mL (L6 cells) [%] |
| --- | --- | --- | --- |
| > 250 °C | CSc1nc2cc(C)nn2c(O)c1C#N [compound 184] |  |  |
| 182 to 187 °C | CSc1nc2cc(C)nn2c(Cl)c1C#N [compound 185] |  |  |
| 204 to 205 °C | CSc1nc2cc(C)nn2c(NCc2ccccc2)c1C#N [compound 187] |  |  |
| 190 to 191 °C | CSc1nc2cc(C)nn2c(NCc2ccncc2)c1C#N [compound 188] |  |  |
| 185 to 187 °C | CSc1nc2cc(C)nn2c(Nc2ccccc2)c1C#N [compound 189] |  |  |
| 142 to 143 °C | COc1cccc(Nc2c(C#N)c(SC)nc3cc(C)nn23)c1 [compound 192] |  |  |
| > 280 °C | CSc1nc2ccnn2c(Nc2ccc(NC(C)=O)cc2)c1C#N [compound 193] |  |  |
| 153 to 155 °C | COC(=O)c1cccc(Nc2c(C#N)c(SC)nc3ccnn23)c1 [compound 194] |  |  |
| 168 to 171 °C | CSc1nc2ccnn2c(Nc2cccc(C(=O)O)c2)c1C#N [compound 195] |  |  |
| 190 to 191 °C | CSc1ccc(Nc2c(C#N)c(SC)nc3ccnn23)cc1 [compound 196] |  |  |
| > 280 °C | CSc1nc2ccnn2c(Nc2ccc(C(N)=O)cc2)c1C#N [compound 197] |  |  |
| 268 to 269 °C | CSc1nc2ccnn2c(Nc2ccc(CC#N)cc2)c1C#N [compound 198] |  |  |
| 260 to 261 °C | CSc1nc2ccnn2c(Nc2ccc(C(C)=O)cc2)c1C#N [compound 199] |  |  |
| 241 to 244 °C | CSc1nc2ccnn2c(Nc2ccc(S(C)(=O)=O)cc2)c1C#N [compound 201] |  |  |
| 250 to 252 °C | CSc1nc2ccnn2c(Nc2ccc(N(C)C)cc2)c1C#N [compound 202] |  |  |
| 182 to 183 °C | CSc1nc2ccnn2c(NOc2ncc(C(F)(F)F)cc2Cl)c1C#N [compound 204] |  |  |
| 185 to 187 °C | CSc1nc2ccnn2c(NCc2ncc(C(F)(F)F)cc2Cl)c1C#N [compound 207] |  |  |
| 152 to 153 °C | CSc1nc2ccnn2c(NOCC2OCCO2)c1C#N [compound 208] |  |  |
| 161 °C | CSc1nc2ccnn2c(NOCC2CCCCO2)c1C#N (centres unmarked) [compound 209] |  |  |
| 116 to 120 °C | CSc1nc2ccnn2c(NCC2CCCO2)c1C#N (centres unmarked) [compound 212] |  |  |
| 143 to 144 °C | CSc1nc2ccnn2c(NOCC2CCCO2)c1C#N (centres unmarked) [compound 213] |  |  |
| 206 to 208 °C | CSc1nc2ccnn2c(Nc2ccccc2C#N)c1C#N [compound 214] |  |  |
| 103 to 104 °C | CSc1nc2ccnn2c(NCCC2OCCCO2)c1C#N [compound 216] |  |  |
| 193 to 195 °C | CSc1nc2ccnn2c(NOCCC2OCCCO2)c1C#N [compound 217] |  |  |
| 102 to 103 °C | CCN(Cc1ccncc1)c1c(C#N)c(SC)nc2ccnn12 [compound 228] |  |  |
| 223 to 224 °C | COc1c(C#N)c(SC)nc2ccnn12 [compound 229] |  |  |
